According to patent US9505767B2, “Pyrazolo[1,5-A]pyrimidin-7(4H)-onehistone demethylase inhibitors” (Genentech, Inc., priority 2013, dated 2016):

target: T1, KDM5A (Homo sapiens, UniProt P29375); test: KDM5A Demethylase Assay (MassSpec Assay-A); format: biochemical; conditions: full length recombinant Flag tagged KDM5A, 20 nM; MassSpec readout; biotinylated H3K9me1 peptide 4.0 μM; read-out: A KDM5A MS (IC50)
T1 construct: Full length recombinant Flag tagged KDM5A protein was purified from Sf9 insect cells; Flag; made in house; host or cells: Sf9 insect cells
T1 sequence (P29375 whole entry): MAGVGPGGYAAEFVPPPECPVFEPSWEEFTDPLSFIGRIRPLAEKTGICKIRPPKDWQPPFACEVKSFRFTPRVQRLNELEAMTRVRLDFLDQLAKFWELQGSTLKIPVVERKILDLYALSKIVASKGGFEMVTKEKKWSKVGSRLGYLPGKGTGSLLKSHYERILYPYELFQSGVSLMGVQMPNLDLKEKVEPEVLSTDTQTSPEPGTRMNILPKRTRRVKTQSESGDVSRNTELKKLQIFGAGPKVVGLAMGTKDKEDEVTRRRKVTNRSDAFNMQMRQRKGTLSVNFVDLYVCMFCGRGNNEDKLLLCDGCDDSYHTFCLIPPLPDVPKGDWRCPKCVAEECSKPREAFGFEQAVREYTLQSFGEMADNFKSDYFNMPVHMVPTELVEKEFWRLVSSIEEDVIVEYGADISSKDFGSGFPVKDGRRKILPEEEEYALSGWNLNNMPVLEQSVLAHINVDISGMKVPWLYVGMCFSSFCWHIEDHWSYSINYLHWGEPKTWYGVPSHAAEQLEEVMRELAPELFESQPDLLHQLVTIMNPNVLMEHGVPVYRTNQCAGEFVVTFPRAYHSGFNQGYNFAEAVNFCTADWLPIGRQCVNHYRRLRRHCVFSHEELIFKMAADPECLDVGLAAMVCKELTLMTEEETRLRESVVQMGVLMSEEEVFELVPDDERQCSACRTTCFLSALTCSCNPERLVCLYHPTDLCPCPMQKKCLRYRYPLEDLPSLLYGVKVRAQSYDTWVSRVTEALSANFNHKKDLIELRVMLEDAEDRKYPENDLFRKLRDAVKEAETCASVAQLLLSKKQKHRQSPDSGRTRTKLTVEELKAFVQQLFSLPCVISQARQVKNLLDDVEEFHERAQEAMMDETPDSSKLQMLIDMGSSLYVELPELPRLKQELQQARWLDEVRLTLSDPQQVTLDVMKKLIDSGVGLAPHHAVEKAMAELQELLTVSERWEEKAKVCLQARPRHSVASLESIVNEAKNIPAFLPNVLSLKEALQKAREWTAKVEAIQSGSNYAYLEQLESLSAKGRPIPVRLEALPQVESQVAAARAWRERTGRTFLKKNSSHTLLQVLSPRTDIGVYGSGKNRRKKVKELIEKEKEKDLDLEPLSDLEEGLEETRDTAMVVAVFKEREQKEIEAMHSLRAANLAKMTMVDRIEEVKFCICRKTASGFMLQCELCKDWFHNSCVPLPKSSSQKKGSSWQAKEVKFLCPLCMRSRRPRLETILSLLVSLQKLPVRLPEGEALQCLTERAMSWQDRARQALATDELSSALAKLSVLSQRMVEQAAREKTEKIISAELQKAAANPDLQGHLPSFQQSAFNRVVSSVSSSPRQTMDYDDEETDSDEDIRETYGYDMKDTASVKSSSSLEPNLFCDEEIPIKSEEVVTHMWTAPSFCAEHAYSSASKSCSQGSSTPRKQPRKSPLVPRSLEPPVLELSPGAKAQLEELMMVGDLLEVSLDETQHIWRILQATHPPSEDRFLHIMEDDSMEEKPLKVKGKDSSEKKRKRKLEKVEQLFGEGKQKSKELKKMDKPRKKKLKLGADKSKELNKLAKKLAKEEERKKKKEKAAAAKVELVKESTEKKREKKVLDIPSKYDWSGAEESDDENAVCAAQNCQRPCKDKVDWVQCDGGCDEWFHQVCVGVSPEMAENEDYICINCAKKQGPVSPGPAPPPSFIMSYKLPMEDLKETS
Protocol: Full length recombinant Flag tagged KDM5A protein was purified from […] insect cells. The demethylation reaction buffer contained 50 mM TrisCl pH 7.4, 0.01% Triton X-100, 0.025 mg/mL BSA, 1 mM ascorbate (Cat# A4034, Sigma Aldrich), 2 mM TCEP (Cat# D9779, Sigma Aldrich), 2.0 μM α-ketoglutarate (# K2010, Sigma Aldrich) and 50 μM Fe2(NH4)2(SO4)2 (Cat# F1543, Sigma Aldrich). In a 25 μL demethylation reaction system, 20 nM recombinant KDM5A and was incubated with compounds for 10 minutes in the above buffer, and then […] (# K2010, Sigma Aldrich), 4.0 μM biotinylated H3K9me1 peptide (1-21 aa), and Fe2(NH4)2(SO4)2 were added to initiate the reaction. (All reagent concentrations are final reagent concentrations.) Reactions were incubated for 30 minutes at room temperature, and then quenched by addition of an equal volume of 1% formic acid. After termination, plates were sealed and frozen at −80° C. for analysis.

Row | SMILES | IC50 [nM]
1 | CCc1c(C)[nH]c2c(-c3cnn(-c4nccc(C)n4)c3)cnn2c1=O [Example 1] | 26.3
2 | CCc1c(C)[nH]c2c(-n3cnc(C(N)=O)c3)cnn2c1=O [Example 55, 1-(6-Ethyl-5-methyl-7-oxo-4,7-dihydropyrazolo[1,5-a]pyrimidin-3-yl)-1H-imidazole-4-carboxamide] | 94.5

Second part, the compound after the results:

Row | IC50 [nM] | SMILES
3 | 6320 | CCc1c(C)[nH]c2c(-n3cnc(-c4cccnc4)c3)cnn2c1=O [Example 45, 6-ethyl-5-methyl-3-(4-(pyridin-3-yl)-1H-imidazol-1-yl)pyrazolo[1,5-a]pyrimidin-7(4H)-one]
4 | 574 | CCc1c(-c2ccccc2)[nH]c2c(-n3cnc(-c4ccccn4)c3)cnn2c1=O [Example 47, 6-ethyl-5-phenyl-3-(4-(pyridin-2-yl)-1H-imidazol-1-yl)pyrazolo[1,5-a]pyrimidin-7(4H)-one]
5 | 70.5 | CCc1c(C)[nH]c2c(-n3cnc(-c4ccccn4)c3)cnn2c1=O [Example 48, 6-Ethyl-5-methyl-3-(4-(pyridin-2-yl)-1H-imidazol-1-yl)pyrazolo[1,5-a]pyrimidin-7(4H)-one]
6 | 70.8 | CCc1[nH]c2c(-n3cnc(-c4ccccn4)c3)cnn2c(=O)c1CC [Example 51, 5,6-Diethyl-3-(4-(pyridin-2-yl)-1H-imidazol-1-yl)pyrazolo[1,5-a]pyrimidin-7(4H)-one]
7 | 470 | Cc1c(-c2ccccc2)[nH]c2c(-n3cnc(-c4ccccn4)c3)cnn2c1=O [Example 52, 6-Methyl-5-phenyl-3-(4-(pyridin-2-yl)-1H-imidazol-1-yl)pyrazolo[1,5-a]pyrimidin-7(4H)-one]
8 | 453 | CCc1c(C)[nH]c2c(-n3cnc(-c4cscn4)c3)cnn2c1=O [Example 53, 6-Ethyl-5-methyl-3-(4-(thiazol-4-yl)-1H-imidazol-1-yl)pyrazolo[1,5-a]pyrimidin-7(4H)-one]
9 | 538 | CCc1c(C)[nH]c2c(-n3cnc(-c4ncccn4)c3)cnn2c1=O [Example 54, 6-ethyl-5-methyl-3-(4-(pyrimidin-2-yl)-1H-imidazol-1-yl)pyrazolo[1,5-a]pyrimidin-7(4H)-one]

target: T1, KDM5A; test: KDM5A Demethylase Assay (TR-FRET Assay-B); format: biochemical; conditions: full length recombinant Flag tagged KDM5A, 2 nM, TrisCl pH 7.4, 3.0 μM α-ketoglutarate, read-out: B KDM5A HTRF (IC50)
Protocol: Full length recombinant Flag tagged KDM5A protein was purified from Sf9 insect cells. The demethylation reaction buffer contained 50 mM TrisCl pH 7.4, 0.01% Triton X-100, 0.025 mg/mL BSA, 1 mM ascorbate, 2 mM TCEP, 3.0 μM α-ketoglutarate, and 50 μM Fe2(NH4)2(SO4)2. […] After a one hour incubation assays were read on a Perkin-Elmer Envision equipped with a laser source and appropriate filters.

Row | IC50 [nM] | SMILES
10 | 4.1 | CCc1c(CO)[nH]c2c(-c3cnn(-c4ccccn4)c3)cnn2c1=O [Example 41, 6-ethyl-5-(hydroxymethyl)-3-(1-(pyridin-2-yl)-1H-pyrazol-4-yl)pyrazolo[1,5-a]pyrimidin-7(4H)-one]
11 | 60.5 | Cc1[nH]c2c(-c3cnn(-c4ccccn4)c3)cnn2c(=O)c1Cl [Example 43, 6-chloro-5-methyl-3-[1-(2-pyridyl)pyrazol-4-yl]-4H-pyrazolo[1,5-a]pyrimidin-7-one]
12 | 43.7 | Cc1cc(=O)n2ncc(-n3cnc(-c4ccccn4)c3)c2[nH]1 [Example 49, 5-Methyl-3-(4-(pyridin-2-yl)-1H-imidazol-1-yl)pyrazolo[1,5-a]pyrimidin-7(4H)-one]
13 | 66.1 | Cc1[nH]c2c(-c3cnn(-c4ccccn4)c3)cnn2c(=O)c1C [Example 61, 5,6-dimethyl-3-[1-(2-pyridyl)pyrazol-4-yl]-4H-pyrazolo[1,5-a]pyrimidin-7-one]
14 | 212 | Cc1[nH]c2c(-c3cnn(-c4ccccn4)c3)cnn2c(=O)c1F [Example 62, 6-fluoro-5-methyl-3-[1-(2-pyridyl)pyrazol-4-yl]-4H-pyrazolo[1,5-a]pyrimidin-7-one]
15 | 169 | CCc1[nH]c2c(-c3cnn(-c4ccccn4)c3)cnn2c(=O)c1CC [Example 63, 5,6-diethyl-3-[1-(2-pyridyl)pyrazol-4-yl]-4H-pyrazolo[1,5-a]pyrimidin-7-one]
16 | 830 | Cc1[nH]c2c(-c3cnn(-c4ccccn4)c3)cnn2c(=O)c1C#N [Example 64, 5-methyl-7-oxo-3-[1-(2-pyridyl)pyrazol-4-yl]-4H-pyrazolo[1,5-a]pyrimidine-6-carbonitrile]
17 | 5.1 | CCc1c(C)[nH]c2c(-c3cnn(-c4ccc(C)cn4)c3)cnn2c1=O [Example 65, 6-ethyl-5-methyl-3-[1-(5-methyl-2-pyridyl)pyrazol-4-yl]-4H-pyrazolo[1,5-a]pyrimidin-7-one]
